Results from article PMC9640990 (Frontiers in Pharmacology, 2022).
Where two headings read alike, the source gives them in different places.

Assays:
hOAT3 = hOAT3 (Homo sapiens, UniProt Q8TCC7); test: Inhibition of hOAT3-mediated uptake of 3H-ES in hOAT3-MDCK cells; format: cell-based
Source text: Considering the relative exposure characteristics, GA and PCA were selected as PK-marker and Q-marker components of PCE in previous studies ([Ma et al., 2015]; [Ma et al., 2016]; [Li et al., 2021b]). In this study, we investigated the concentration-dependent inhibitions of GA and PCA on multiple transporters, including OAT1, OAT3, OCT2, MDR1, and BCRP. Stably expressing cell lines of hOAT1-MDCK, hOAT3-MDCK, hOCT2-S2, hMDR1-MDCK, hBCRP-MDCK, and their mock cells were obtained from Japan Fuji Biomedical Co., Ltd. The cells were maintained in DMEM (Sigma) supplemented with 10% FCS, 1% non-essential amino acids (Sigma), and 2% L-glutamine. The medium for the Transwell® plates (Corning Costar, Cambridge, MA, United States) was supplemented with 0.1% gentamicin. Membrane filters were placed in a 12 mm well with 1.5 and 0.5 ml of culture medium in the basolateral and apical compartments, respectively. Cells were cultured at 37°C in an atmosphere of 5% CO2. The inhibition experiments were adapted from previous methods with minor modifications ([Li et al., 2021a]; [2021b]).
Briefly, the hOAT1-MDCK, hOAT3-MDCK, and hOCT2-S2 cells were trypsinized and suspended in the culture medium to provide a density of 1.5 × 10^5 cells/ml. After incubating for 48 h, the cells were washed twice with preheated DPBS and then pre-incubated with DPBS for 10 min at 37°C. 500 µl of DPBS containing probe substrates was added to initiate the uptake in the presence or absence of GA, PCA or positive inhibitors. The hMDR1-MDCK and hBCRP-MDCK cells were suspended at a density of 4.0 × 10^5 cells/ml. After cultivation for 7 days, cells were washed twice and equilibrated for 30 min at 37°C with the pre-warmed HBSS buffer. […] The radioactive intensity of ^14C-PAH, ^3H-ES, and ^14C-TEA was measured using a Tri-Carb 2910TR scintillator (PerkinElmer, United States). Fluorescence was measured at 485 nm (excitation) and 546 nm (emission) for rhodamine 123, and 425 nm (excitation) and 528 nm (emission) for lucifer yellow. IC50 values were determined by employing GraphPad Prism 9.

hBCRP = biological target: T1, hBCRP (Homo sapiens, UniProt Q9UNQ0); test: hBCRP-mediated efflux of lucifer yellow in hBCRP-MDCK cells; format: cell-based; conditions: for efflux of BCRP-mediated lucifer yellow: concentration range 0.3 to 30 µM; for inhibitory effect on BCRP activity: hBCRP-MDCK cells, co-incubation 0.3 to 30 µM
T1 construct: host or cells: MDCK
T1 sequence (Q9UNQ0 1-655): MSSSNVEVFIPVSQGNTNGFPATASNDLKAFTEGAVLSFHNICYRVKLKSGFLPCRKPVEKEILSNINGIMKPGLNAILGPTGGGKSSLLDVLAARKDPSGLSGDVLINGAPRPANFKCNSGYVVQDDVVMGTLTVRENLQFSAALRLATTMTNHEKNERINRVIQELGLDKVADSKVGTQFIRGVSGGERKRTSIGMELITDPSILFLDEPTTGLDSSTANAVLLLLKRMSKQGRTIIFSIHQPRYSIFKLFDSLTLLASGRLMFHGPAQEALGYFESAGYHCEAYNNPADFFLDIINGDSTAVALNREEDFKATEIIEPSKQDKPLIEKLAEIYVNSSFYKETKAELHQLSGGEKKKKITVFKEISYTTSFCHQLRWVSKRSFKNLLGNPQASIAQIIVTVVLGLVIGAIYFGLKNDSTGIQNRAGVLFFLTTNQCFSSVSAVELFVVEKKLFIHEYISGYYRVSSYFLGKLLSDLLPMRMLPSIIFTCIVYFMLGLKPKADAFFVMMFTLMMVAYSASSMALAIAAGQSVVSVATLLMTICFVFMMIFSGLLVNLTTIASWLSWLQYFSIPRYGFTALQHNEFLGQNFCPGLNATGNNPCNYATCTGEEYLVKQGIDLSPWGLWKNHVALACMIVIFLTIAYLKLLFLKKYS
Description: Briefly, the hOAT1-MDCK, hOAT3-MDCK, and hOCT2-S2 cells were trypsinized and suspended in the culture medium to provide a density of 1.5 × 10^5 cells/ml. […] After cultivation for 7 days, cells were washed twice and equilibrated for 30 min at 37°C with the pre-warmed HBSS buffer. […] The content of DMSO was below 1% and constant in all inhibition experiments. All experiments were performed in triplicate. The cell lysate and 3.0 ml of aquasol-2 scintillation fluid were put into a scintillation flask. […] IC50 values were determined by employing GraphPad Prism 9.

[1] = not given; remark: listed apart in the source
in vivo = conditions: male, Sprague-Dawley, rat, po, 0.72 g/kg; for Cmax: C max; for Vd/F: V z/F; for k el: k e; for half-life: t 1/2, plasma PK-marker; for Tmax: t max, median (range)
clinical = conditions: male, human; for Cmax: C max; for Vd/F: V z/F; for k el: k e
[2] = plasma PK-marker, human subjects, oral single dose of PCE (8 g) alone
[3] = plasma, plasma PK-marker, rats, intragastric PCE 0.72 g/kg + CIP […]
[4] = plasma, plasma PK-marker, rats, intragastric PCE 0.72 g/kg alone
[5] = plasma, oral, plasma PK-marker, human subjects, multiple doses of PCE (8 g, TID, seven days) + CIP 0.5 g
[6] = plasma, oral, plasma PK-marker, human subjects, single dose of PCE (8 g) + CIP 0.5 g
[7] = plasma, po, plasma PK-marker, human subjects, oral single dose of PCE (8 g) alone

hOAT3, sequence (Q8TCC7 whole entry): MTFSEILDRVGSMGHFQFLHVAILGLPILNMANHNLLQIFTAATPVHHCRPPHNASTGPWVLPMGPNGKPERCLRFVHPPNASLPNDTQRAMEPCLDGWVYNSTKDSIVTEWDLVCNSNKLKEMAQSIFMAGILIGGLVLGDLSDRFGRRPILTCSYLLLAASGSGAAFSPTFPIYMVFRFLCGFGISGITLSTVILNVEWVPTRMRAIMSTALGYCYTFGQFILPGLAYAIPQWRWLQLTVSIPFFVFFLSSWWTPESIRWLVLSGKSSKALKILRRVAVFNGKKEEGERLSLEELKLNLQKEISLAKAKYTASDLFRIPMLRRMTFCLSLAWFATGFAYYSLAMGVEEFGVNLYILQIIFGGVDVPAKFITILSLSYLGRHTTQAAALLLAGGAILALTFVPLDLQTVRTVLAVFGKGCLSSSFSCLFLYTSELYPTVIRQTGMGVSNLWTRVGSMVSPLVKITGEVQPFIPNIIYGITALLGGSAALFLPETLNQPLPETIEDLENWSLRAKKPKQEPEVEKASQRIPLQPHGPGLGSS

With `O=C(O)c1ccc(O)c(O)c1` [PCA, protocatechuic acid] the IC50 (hOAT3; hOAT3-MDCK cells, 3H-ES 0.05 µM, read-out: IC50, hOAT3) was 152 µM, the “efflux of BCRP-mediated lucifer yellow” value (hBCRP) was “concentration-dependent increase” and the “inhibitory effect on BCRP activity” value (hBCRP) was “no inhibitory effect”. For the same compound, the CL/F (plasma PK-marker, human subjects, multiple doses of PCE (8 g, TID, seven days) + CIP 0.5 g) was 5.78 ± 1.57 L/h, the C max [2] was 6.07 ± 1.48 ng/mL and the CL/F [2] was 5.64 ± 1.45 L/h. The CL/F (plasma PK-marker, human subjects, single dose of PCE (8 g) + CIP 0.5 g) was 4.26 ± 0.91 L/h, the CL/F ([1]; plasma PK-marker, rats, intragastric PCE 0.72 g/kg + CIP […]) was 6.67 ± 1.54 L/h and the CL/F ([1]; plasma PK-marker, rats, intragastric PCE 0.72 g/kg alone) was 6.72 ± 2.19 L/h. It also gave an AUC(0-t) (in vivo; [3]) of 6.37 ± 1.18 ng·h/mL, an AUC(0-t) (in vivo; [4]) of 6.72 ± 2.39 ng·h/mL and an AUC(0-inf) (in vivo; [3]) of 7.04 ± 1.55 ng·h/mL. For the same compound, the AUC(0-inf) (in vivo; [4]) was 7.32 ± 2.39 ng·h/mL, the Cmax (in vivo; [3]) was 6.69 ± 1.87 ng/mL and the Cmax (in vivo; [4]) was 5.08 ± 1.82 ng/mL. The Vd/F (in vivo; [3]) was 6.87 ± 2.54 L, the Vd/F (in vivo; [4]) was 6.5 ± 3.16 L and the k el (in vivo; [3]) was 0.000306 s⁻¹. For the same compound, the k el (in vivo; [4]) was 0.000308 s⁻¹, the half-life (in vivo; plasma, rats, intragastric PCE 0.72 g/kg + CIP […]) was 45.6 ± 25.8 min and the half-life (in vivo; plasma, rats, intragastric PCE 0.72 g/kg alone) was 40.8 ± 12.6 min. The Tmax (in vivo; [3]) was 30 min, the Tmax (in vivo; [4]) was 30 min and the AUC(0-t) (clinical; [5]) was 3.03 ± 0.9 ng·h/mL. It also gave an AUC(0-t) (clinical; [6]) of 3.68 ± 1.15 ng·h/mL, an AUC(0-inf) (clinical; [5]) of 3.35 ± 0.99 ng·h/mL and an AUC(0-inf) (clinical; [6]) of 4.4 ± 0.93 ng·h/mL. It also gave a Cmax (clinical; [5]) of 5.88 ± 1.66 ng/mL, a Cmax (clinical; [6]) of 6.44 ± 2.57 ng/mL and a Vd/F (clinical; [5]) of 150 ± 54.4 L. It also gave a Vd/F (clinical; [6]) of 149 ± 65.6 L, a k el (clinical; [5]) of 0.000697 s⁻¹ and a k el (clinical; [6]) of 0.000569 s⁻¹. The half-life (clinical; plasma, oral, t 1/2, plasma PK-marker, human subjects, multiple doses of PCE (8 g, TID, seven days) + CIP 0.5 g) was 18.6 ± 8.4 min, the half-life (clinical; plasma, oral, t 1/2, plasma PK-marker, human subjects, single dose of PCE (8 g) + CIP 0.5 g) was 25.2 ± 11.4 min and the Tmax (clinical; plasma, po) was 19.8 min. The AUC(0-t) (clinical; [7]) was 2.84 ± 0.72 ng·h/mL, the AUC(0-inf) (clinical; [7]) was 3.39 ± 0.94 ng·h/mL and the Vd/F (clinical; [7]) was 148 ± 23.9 L. The k el (clinical; [7]) was 0.000656 s⁻¹ and the half-life (clinical; plasma, po, t 1/2, plasma PK-marker, human subjects, oral single dose of PCE (8 g) alone) was 19.2 ± 6.6 min.
With `O=C(O)c1cc(O)c(O)c(O)c1` [GA, Gallic acid] the IC50 (hOAT3) was 62.3 µM, the “efflux of BCRP-mediated lucifer yellow” value (hBCRP) was “concentration-dependent increase” and the “inhibitory effect on BCRP activity” value (hBCRP) was “no inhibitory effect”. For the same compound, the CL/F (human, in vivo, po) was 2.10 ± 0.64 L/h, the “t 1/2” value ([1]; male, Sprague-Dawley, rat, in vivo, po, 0.72 g/kg) was 157 ± 107 min and the CL/F ([1]; rat, in vivo, po, 0.72 g/kg) was 2.06 ± 0.85 L/h. It also gave an AUC(0-t) (in vivo; in vivo) of 465 ± 171 ng·h/mL, an AUC(0-inf) (in vivo; in vivo) of 483 ± 169 ng·h/mL and a Cmax (in vivo; in vivo) of 134 ± 36.4 ng/mL. It also gave a Vd/F (in vivo; in vivo) of 8.93 ± 9.83 L, a Tmax (in vivo; in vivo, plasma PK-marker, rats, intragastric PCE 0.72 g/kg alone) of 90 min and a k el (in vivo; [3]) of 0.000122 s⁻¹. For the same compound, the k el (in vivo; [4]) was 9.72e-05 s⁻¹, the Tmax (clinical; in vivo, po) was 52.8 min and the AUC(0-t) (clinical; in vivo, po) was 242 ± 70 ng·h/mL. The AUC(0-inf) (clinical; in vivo, po) was 248 ± 67 ng·h/mL, the Cmax (clinical; in vivo, po) was 130 ± 32.7 ng/mL and the Vd/F (clinical; in vivo, po) was 322 ± 295 L. For the same compound, the half-life (clinical; in vivo, po, t 1/2) was 98.4 ± 55.2 min, the k el (clinical; [5]) was 0.000117 s⁻¹ and the k el (clinical; [6]) was 0.000131 s⁻¹. The k el (clinical; [7]) was 0.000142 s⁻¹.
